Bounds are passed on as bounds.

A short description of series [1]: Cytotoxicity against human MCF7 by MTT assay. The conditions noted are these: MCF7 cells, read-out: LD50 (the source's name). The series is classed as cell-based. (In general: Tetrazolium dyes change colour on reduction, which living cells bring about.)
Series [2] is described as follows: Cytotoxicity against pig LLC-PK1 cells by MTT assay. The series is classed as cell-based, Sus scrofa. The settings on record: read-out: LD50 (the source's name).
Series [3] can be described thus: Cytotoxicity against […] HepG2 cells by MTT assay. The settings on record: read-out: LD50 (the source's name). In kind it is cell-based.
The test system of series [4] is Erythrocyte. Kind of series: Hemolytic activity in human RBC at 30 uM. The series is classed as functional.
The test system of series [5] is Erythrocyte. Kind of series: Hemolytic activity in human RBC at 80 uM. The series is classed as functional.

For `C[N+]1(CCOCCOCCN)CCCC1`, the CC50 in series [1], in series [2] and in series [3] was greater than 80 µM each time.
In the case of `CCCCCCCCCCCCCCCCCC(=O)NCCOCCOCCN.Cl`, the CC50 in series [1], in series [2] and in series [3] was greater than 80 µM throughout. Further, the Activity in the series on Erythrocyte [4] is listed as 34%; in the series on Erythrocyte [5] it was 53%.
